From patent publication US20100280987A1, “METHODS AND GENE EXPRESSION SIGNATURE FOR ASSESSING RAS PATHWAY ACTIVITY” (priority 2009, published 2010)
“Also recorded” adds a separate entry of the source.

Key:
[1] = blood concentration of AZD6244 post-dose in mice; format: in vivo, CD-1 nude mice
[2] = tested on: p53 loss of function and KRas mutant lung tumors (7450 KP-model); assay: tumor progression in 7450 KP-model mice; format: in vivo; conditions: 7450 KP mice, after 4 weeks of treatment (data not shown)
[3] = tested on: RAS pathway signature; assay: RAS pathway signature score in tumors after treatment in vivo; conditions: 7450 KP-model mice, 150 mpk, three doses 10 hours apart, tumors 4 hours post last dose; 150 mg/kg
Experimental: As a first step in the analysis of the RAS signatures, we assessed the coherency of the signatures across four cell line panels from lung, colon, breast, and lymphoid malignancies. The purpose of coherence analysis is to show the statistical significance of the difference between the “Up” and “Down” arms of the signature in a new dataset. Two correlation coefficients were calculated for all of the genes in both the Up and Down arms. First, the correlation between each gene in the Up arm and the average of all genes in the Up arm is calculated. Second, the anticorrelation between each gene in the Up arm and the average of all genes in the Down arm is calculated. This is repeated for genes in the Down arm. […] A Fisher exact test is calculated for correlation within and between arms of the signature to assess the significance of signature coherence in a new dataset. […] RAS pathway activity (or regulation) is summarized into a RAS signature score, which is calculated as: (mean expression of Up genes (Table 2a))—(mean expression of Down genes (Table 2b)). […]
The 7450 KP mice were treated with a small molecule MEK inhibitor, AZD6244 (Ohren et al., 2004, Nat. Struct. Mol. Biol. 11:119201197). […] RAS signature pathway signatures scores were calculated as previously described for each time point and plotted (FIG. 18).

[4] = tested on: MEK1 and MEK2; conditions: purified enzyme, read-out: in vitro IC50 against purified enzyme; cited from earlier work

Cn1cnc2c(F)c(Nc3ccc(Br)cc3Cl)c(C(=O)NOCCO)cc21 [AZD6244]
clearance post-dose ([1]; CD-1 nude mice): cleared quickly | half-life in vivo ([1]; in vivo): short half-life | blood concentration after the peak ([1]; mice (CD-1 nude mice), blood): decreased rapidly | tumor progression compared vehicle [2]: significantly halted tumor progression | RAS pathway signature score in vivo at 4 hours post-dose [3]: down regulated; also recorded: down-regulated | IC50 [4]: 10 to 14 nM
